# Read-outs that look alike come from different tables or passages of the source.
# Legend:
# Septoria tritici = assay: Example B3: mixtures, preventative activity against Septoria tritici (leaf blotch), liquid culture; assay type: cell-based; settings: for inhibition at 0.1 ppm / inhibition at 0.3 ppm: Zymoseptoria tritici, read-out: Activity (%) B
# Text: (§1) This occurs whenever the action of an active ingredient combination is greater than the sum of the actions of the individual components. The action to be expected E for a given active ingredient combination obeys the so-called COLBY formula and can be calculated as follows (COLBY, S. R. “Calculating synergistic and antagonistic responses of herbicide combination”. Weeds, Vol. 15, pages 20-22; 1967):
# (§2) If the action actually observed (O) is greater than the expected action (E), then the action of the combination is super-additive, i.e. there is a synergistic effect. In mathematical terms, synergism corresponds to a positive value for the difference of (O-E). In the case of purely complementary addition of activities (expected activity), said difference (O-E) is zero. A negative value of said difference (O-E) signals a loss of activity compared to the expected activity.
# (§3) Conidia of the fungus from cryogenic storage were directly mixed into nutrient broth (PDB potato dextrose broth). A DMSO solution of the test compounds was placed into a microtiter plate (96-well format) and the nutrient broth containing the fungal spores was added to it.
# (§4) Fungicidal activity was evaluated on a 100-0 scale (100=no disease growth; 0=well completely covered by mycelium).
# [1] = system: Glomerella lagenarium syn. Colletotrichum lagenarium; assay: Example B1: mixtures, preventative activity against Glomerella lagenarium syn. Colletotrichum lagenarium, liquid culture; assay type: cell-based; settings: for inhibition at 0.1 ppm / inhibition at 0.3 ppm: Colletotrichum orbiculare, read-out: Activity (%) B
# Text: as §1, §2, §3, §4
# [2] = system: Mycosphaerella arachidis syn. Cercospora arachidicola; assay: Example B4: mixtures, preventative activity against Mycosphaerella arachidis syn. Cercospora arachidicola (brown leaf spot of peanut), liquid culture; assay type: cell-based; settings: component B alone; for inhibition at 0.1 ppm / inhibition at 0.3 ppm: Mycosphaerella arachidis
# Text: as §1, §2, §3
# Cercospora arachidicola (Brown leaf spot of peanut). Fungicidal activity was evaluated on a 100-0 scale (100=no disease growth; 0=well completely covered by mycelium).
# Phakopsora pachyrhizi = assay: Example B5: preventative activity against Phakopsora pachyrhizi (soybean rust), whole soybean plants sprayed, leaf disks inoculated; assay type: in vivo
# Experimental: Whole soybean plants are treated with the recited active ingredients 4 weeks after planting. 1 day after spraying leaf disks are cut from the first trifoliate leaf. Five repetitions at each rate are conducted. The leaf disks are inoculated with Phakopsora pachyrhizi (Asian soybean rust) one day after treatment.
# Evaluation of the leaf disks is conducted 11 to 14 days after inoculation and the activity is derived from the relation of the treated vs untreated, infested check (100=no disease, no damage to the leaf, 0=high infestation, leaf damaged heavily). The rates of the active ingredients used are given in the tables as g active ingredient (a.i.)/ha.
# Septoria glycines = assay: Example B2: mixtures, preventative activity against Septoria glycines (brown spot), liquid culture; assay type: cell-based; settings: component B alone; for inhibition at 0.1 ppm / inhibition at 0.3 ppm: Septoria glycines; for inhibition at 0.1 ppm: read-out: Activity (%) B
# Text: as §1, §2
# as §3, with “fungus harvested” for “fungus”, “a fresh culture grown on artificial media,” for “cryogenic storage”
# as §4
# [3] = 72 h, component B alone, 0.1 ppm, 72 hrs, 100=no disease growth
# [4] = 72 h, component B alone, 0.3 ppm, 72 hrs
# [5] = component B alone, 0.3 ppm, 100-0 scale
# [6] = active ingredient alone, 2.25 g/ha
# [7] = active ingredient alone, 4.5 g/ha
# [8] = active ingredient alone, 9 g/ha
# [9] = component B alone, 0.1 ppm, 100-0 scale
# [10] = Phakopsora pachyrhizi, foliar, read-out: Observed Activity (% of untreated) against Phakopsora pachyrhizi
smiles,measurement,setting,value
"N#Cc1c(Cl)c(Cl)c(Cl)c(C#N)c1Cl [chlorothalonil, reference compound]",inhibition at 0.1 ppm,Septoria tritici; [3],20%
same,inhibition at 0.3 ppm,Septoria tritici; [4],70%
same,inhibition at 0.3 ppm,Septoria tritici; [5],70%
same,inhibition at 0.1 ppm,"[1]; component B alone, 0.1 ppm",0%
same,inhibition at 0.3 ppm,"[1]; component B alone, 0.3 ppm",20%
same,inhibition at 0.1 ppm,[2]; 0.1 ppm,0%
same,inhibition at 0.3 ppm,[2]; 0.3 ppm,90%
"Cn1cc(C(=O)Nc2cccc3c2[C@@H]2CC[C@H]3C2=C(Cl)Cl)c(C(F)F)n1 (racemic) [benzovindiflupyr, reference compound]",Observed Activity (%) (% of untreated),Phakopsora pachyrhizi; [6],34%
same,Observed Activity (%) (% of untreated),Phakopsora pachyrhizi; [7],80%
same,Observed Activity (%) (% of untreated),Phakopsora pachyrhizi; [8],99%
same,Observed Activity (% of untreated) against Phakopsora pachyrhizi,"Phakopsora pachyrhizi; applied alone, 2.25 g/ha",34%
same,Observed Activity (% of untreated) against Phakopsora pachyrhizi,"Phakopsora pachyrhizi; applied alone, 4.5 g/ha",80%
same,Observed Activity (% of untreated) against Phakopsora pachyrhizi,"Phakopsora pachyrhizi; applied alone, 9 g/ha",99%
same,Activity (%) B,Septoria tritici; [9],50%
same,Activity (%) B,Septoria tritici; [5],70%
same,Activity (%) B,"[1]; component B alone, 0.1 ppm",50%
same,Activity (%) B,"[1]; component B alone, 0.3 ppm",100%
CC(C)c1ccc(Cl)cc1CN(C(=O)c1c(C(F)F)nn(C)c1F)C1CC1 [isoflucypram],Activity (%) B,[2]; 0.1 ppm,90%
same,Activity (%) B,[2]; 0.3 ppm,100%
"COc1ccnc(C(=O)N[C@@H](C)C(=O)O[C@@H](C)C(c2ccc(F)cc2)c2ccc(F)cc2)c1OC(C)=O [florylpicoxamid, reference compound]",Activity (%) B,"Septoria tritici; component B alone, 0.01 ppm, 100-0 scale",0%
same,Activity (%) B,"Septoria tritici; component B alone, 0.01 ppm, 72 hrs",0%
same,Activity (%) B,"Septoria tritici; component B alone, 0.02 ppm, 100-0 scale",20%
same,Activity (%) B,"Septoria tritici; component B alone, 0.02 ppm, 72 hrs",20%
same,Activity (%) B,Septoria glycines; 0.01 ppm,0%
same,Activity (%) B,"Septoria glycines; 0.01 ppm, 100-0 scale",0%
same,Activity (%) B,Septoria glycines; 0.02 ppm,20%
same,Activity (%) B,"Septoria glycines; 0.02 ppm, 100-0 scale",20%
same,Activity (%) B,[2]; 0.01 ppm,70%
same,Activity (%) B,[2]; 0.02 ppm,90%
"OC(Cc1ccccc1Cl)(Cn1nc[nH]c1=S)C1(Cl)CC1 (centres unmarked) [proth ioconazole, prothioconazole, reference compound]",inhibition at 22.5 g/ha,"Phakopsora pachyrhizi; Phakopsora pachyrhizi, foliar, active ingredient alone, 22.5 g/ha, read-out: Observed Activity (%) (% of untreated)",47%
same,inhibition at 45 g/ha,"Phakopsora pachyrhizi; Phakopsora pachyrhizi, foliar, active ingredient alone, 45 g/ha, read-out: Observed Activity (%) (% of untreated)",80%
same,inhibition at 90 g/ha,"Phakopsora pachyrhizi; Phakopsora pachyrhizi, foliar, active ingredient alone, read-out: Observed Activity (%) (% of untreated)",94%
same,inhibition at 22.5 g/ha,"Phakopsora pachyrhizi; Phakopsora pachyrhizi, foliar, applied alone, 22.5 g/ha, read-out: Observed Activity (% of untreated) against Phakopsora pachyrhizi",47%
same,inhibition at 45 g/ha,"Phakopsora pachyrhizi; Phakopsora pachyrhizi, foliar, applied alone, 45 g/ha, read-out: Observed Activity (% of untreated) against Phakopsora pachyrhizi",80%
same,inhibition at 90 g/ha,"Phakopsora pachyrhizi; Phakopsora pachyrhizi, foliar, applied alone, read-out: Observed Activity (% of untreated) against Phakopsora pachyrhizi",94%
same,inhibition at 0.3 ppm,"[1]; component B alone, 0.3 ppm",50%
same,Activity (%) B,"[1]; component B alone, 0.1 ppm",20%
same,inhibition at 0.1 ppm,"Septoria glycines; 0.1 ppm, 100-0 scale",90%
same,inhibition at 0.3 ppm,"Septoria glycines; 0.3 ppm, 100-0 scale",90%
same,Activity (%) B,Septoria glycines; 0.3 ppm,50%
"Cn1cc(C(=O)Nc2ccccc2-c2cc(F)c(F)c(F)c2)c(C(F)F)n1 [fluxapyroxad, reference compound]",Observed Activity (% of untreated) against Phakopsora pachyrhizi,"Phakopsora pachyrhizi; applied alone, 2.25 g/ha",8%
same,Observed Activity (% of untreated) against Phakopsora pachyrhizi,"Phakopsora pachyrhizi; applied alone, 4.5 g/ha",7%
same,Observed Activity (% of untreated) against Phakopsora pachyrhizi,"Phakopsora pachyrhizi; applied alone, 9 g/ha",66%
same,Activity (%) B,"[1]; component B alone, 0.1 ppm",0%
same,Activity (%) B,"[1]; component B alone, 0.3 ppm",0%
Cc1nc2c(F)c(F)ccc2cc1Oc1cccc(F)c1C(C)(C)O [ipflufenoquin],Activity (%) B,Septoria tritici; [9],0%
same,Activity (%) B,Septoria tritici; [5],20%
same,Activity (%) B,"[1]; component B alone, 0.1 ppm",20%
same,Activity (%) B,"[1]; component B alone, 0.3 ppm",100%
same,Activity (%) B,"Septoria glycines; 0.1 ppm, 100-0 scale",0%
same,Activity (%) B,"Septoria glycines; 0.3 ppm, 100-0 scale",0%
"N#Cc1c[nH]cc1-c1cccc2c1OC(F)(F)O2 [fludioxonil, reference compound]",inhibition at 450 g/ha,Phakopsora pachyrhizi; [10],0%
same,inhibition at 900 g/ha,Phakopsora pachyrhizi; [10],1%
same,inhibition at 0.1 ppm,Septoria tritici; 72 h,0%
same,inhibition at 0.3 ppm,Septoria tritici; 72 h,20%
same,inhibition at 0.1 ppm,Septoria tritici,0%
same,inhibition at 0.3 ppm,Septoria tritici,20%
same,inhibition at 0.1 ppm,[1],0%
same,inhibition at 0.3 ppm,[1],0%
O=C(NCCc1ncc(C(F)(F)F)cc1Cl)c1ccccc1C(F)(F)F [fluopyram],inhibition at 0.1 ppm,Septoria tritici; [3],0%
same,inhibition at 0.3 ppm,Septoria tritici; [4],50%
same,inhibition at 0.1 ppm,[2]; 0.1 ppm,0%
same,inhibition at 0.3 ppm,[2]; 0.3 ppm,90%
"CON=C(C(=O)OC)c1ccccc1CON=C(C)c1cccc(C(F)(F)F)c1 [trifloxystrobin, reference compound]",inhibition at 2.25 g/ha,"Phakopsora pachyrhizi; Phakopsora pachyrhizi, foliar, applied alone, 2.25 g/ha, read-out: Observed Activity (% of untreated) against Phakopsora pachyrhizi",0%
same,inhibition at 4.5 g/ha,"Phakopsora pachyrhizi; Phakopsora pachyrhizi, foliar, applied alone, 4.5 g/ha, read-out: Observed Activity (% of untreated) against Phakopsora pachyrhizi",3%
same,inhibition at 9 g/ha,"Phakopsora pachyrhizi; Phakopsora pachyrhizi, foliar, applied alone, 9 g/ha, read-out: Observed Activity (% of untreated) against Phakopsora pachyrhizi",0%
same,inhibition at 18 g/ha,"Phakopsora pachyrhizi; Phakopsora pachyrhizi, foliar, applied alone, 18 g/ha, read-out: Observed Activity (% of untreated) against Phakopsora pachyrhizi",19%
same,inhibition at 0.1 ppm,"[1]; component B alone, 0.1 ppm",90%
same,inhibition at 0.3 ppm,"[1]; component B alone, 0.3 ppm",90%
same,inhibition at 0.1 ppm,"Septoria glycines; 0.1 ppm, 100-0 scale",90%
same,inhibition at 0.3 ppm,"Septoria glycines; 0.3 ppm, 100-0 scale",100%
"Cc1cccc(-n2nnn(C)c2=O)c1COc1ccn(-c2ccc(Cl)cc2)n1 [metyltetraprole, reference compound]",Observed Activity (%) (% of untreated),Phakopsora pachyrhizi; [6],1%
same,Observed Activity (%) (% of untreated),Phakopsora pachyrhizi; [7],0%
same,Observed Activity (%) (% of untreated),Phakopsora pachyrhizi; [8],7%
same,Observed Activity (%) (% of untreated),"Phakopsora pachyrhizi; active ingredient alone, 18 g/ha",67%
same,Observed Activity (% of untreated) against Phakopsora pachyrhizi,"Phakopsora pachyrhizi; applied alone, 2.25 g/ha",1%
same,Observed Activity (% of untreated) against Phakopsora pachyrhizi,"Phakopsora pachyrhizi; applied alone, 4.5 g/ha",0%
same,Observed Activity (% of untreated) against Phakopsora pachyrhizi,"Phakopsora pachyrhizi; applied alone, 9 g/ha",7%
same,Observed Activity (% of untreated) against Phakopsora pachyrhizi,"Phakopsora pachyrhizi; applied alone, 18 g/ha",67%
same,Activity (%) B,"[1]; component B alone, 0.1 ppm",90%
same,Activity (%) B,"[1]; component B alone, 0.3 ppm",90%
"[Cl-].[Cu+2].[Cu+2].[OH-].[OH-].[OH-] [copper oxychloride, reference compound]",Observed Activity (% of untreated) against Phakopsora pachyrhizi,"Phakopsora pachyrhizi; applied alone, 22.5 g/ha",2%
same,Observed Activity (% of untreated) against Phakopsora pachyrhizi,"Phakopsora pachyrhizi; applied alone, 45 g/ha",5%
same,Activity (%) B,"[1]; component B alone, 0.1 ppm",0%
same,Activity (%) B,"[1]; component B alone, 0.3 ppm",0%
O=C1c2ccccc2C(=O)N1SC(Cl)(Cl)Cl [folpet],inhibition at 0.1 ppm,Septoria tritici; [9],0%
same,inhibition at 0.3 ppm,Septoria tritici; [5],0%
same,inhibition at 0.1 ppm,[2]; 0.1 ppm,20%
Cc1ccc(C(=O)OCc2ccc(Oc3ccccc3)cc2)c(N)n1 [aminopyrifen],Activity (%) B,"[1]; component B alone, 0.1 ppm",20%
same,Activity (%) B,"[1]; component B alone, 0.3 ppm",50%
same,Activity (%) B,Septoria glycines; 0.1 ppm,0%
same,Activity (%) B,"Septoria glycines; 0.1 ppm, 100-0 scale",0%
same,Activity (%) B,"Septoria glycines; 0.3 ppm, 100-0 scale",20%
same,Activity (%) B,[2]; 0.1 ppm,90%
same,Activity (%) B,[2]; 0.3 ppm,100%

# From US20230131427A1, “FUNGICIDAL COMPOSITIONS” (SYNGENTA CROP PROTECTION AG, priority 2020, published 2023)
